Source: patent US20250154127A1, “BICYCLIC HETEROARYL COMPOUNDS AND USES THEREOF” (ETERN BIOPHARMA (SHANGHAI) CO., LTD., priority 2022, published 2025)

What was measured:
[1] = molecular target: TEAD1(210-426) binding to YAP(50-100) (Homo sapiens, UniProt P28347); assay: TR-FRET Assay for TEAD1(210-426) Binding to YAP(50-100); conditions: His-TEAD 10 nM, YAP-Biotin peptide 50 nM
Method in brief: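 10 nM His-TEAD1 preincubated 30 min at room temperature with compound (3-fold dilutions, 12 points, 1% DMSO), then 50 nM biotin-YAP peptide added.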

MSTO-211H cells = assay: Proliferation Assay (CellTiter-Glo Luminescent Cell Viability Assay); assay type: cell-based; conditions: Homo sapiens, 96 hours treatment
Method in brief: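 MSTO-211H cells, 1,500/well in RPMI 1640 with 10% FBS, plated overnight, then treated 96 h with 9-point 3-fold compound series in duplicate (DMSO below 0.5%). Viability by CellTiter-Glo luminescence; inhibition relative to DMSO wells, IC50 by four-parameter fit.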

Sequence of TEAD1(210-426) binding to YAP(50-100) (P28347 209-426): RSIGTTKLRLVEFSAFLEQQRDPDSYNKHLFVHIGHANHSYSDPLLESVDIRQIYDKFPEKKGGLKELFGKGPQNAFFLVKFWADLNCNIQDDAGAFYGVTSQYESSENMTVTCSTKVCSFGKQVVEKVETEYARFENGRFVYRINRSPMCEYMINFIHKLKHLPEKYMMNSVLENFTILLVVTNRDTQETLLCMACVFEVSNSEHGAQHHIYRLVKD

Row | SMILES | IC50 [1] [nM] | IC50 (MSTO-211H cells) [nM]
1 | CNc1nccc(Cn2ccc(-c3nn(-c4ccc(C(F)(F)F)cc4)c4cc(F)ccc34)cc2=O)n1 [Compound 141, 4-(6-fluoro-1-(4-(trifluoromethyl)phenyl)-1H-indazol-3-yl)-1-((2-(methylamino)pyrimidin-4-yl)methyl)pyridin-2(1H)-one] | ≤ 100 | ≤ 1000
2 | COc1ccc2c(c1)c(-c1ccn([C@@H](C)c3ccccn3)c(=O)c1)nn2-c1ccc(C(F)(F)F)cc1 [Compound 34, (S)-4-(5-methoxy-1-(4-(trifluoromethyl)phenyl)-1H-indazol-3-yl)-1-(1-(pyridin-2-yl)ethyl)pyridin-2(1H)-one] | ≤ 100 | ≤ 1000
3 | CNc1ccnc(Cn2ccc(-c3nn(-c4ccc(C(F)(F)F)cc4)c4cc(F)ccc34)cc2=O)n1 [Compound 53, 4-(6-fluoro-1-(4-(trifluoromethyl)phenyl)-1H-indazol-3-yl)-1-((4-(methylamino)pyrimidin-2-yl)methyl)pyridin-2(1H)-one] | ≤ 100 | ≤ 1000
4 | C[C@@H](c1ccccn1)n1ccc(-c2nn(-c3ccc(C(F)(F)F)cc3)c3cc(C(=O)O)ccc23)cc1=O [Compound 29, (S)-3-(2-oxo-1-(1-(pyridin-2-yl)ethyl)-1,2-dihydropyridin-4-yl)-1-(4-(trifluoromethyl)phenyl)-1H-indazole-6-carboxylic acid] | > 1000 | ≤ 1000
5 | CNc1nccc(Cn2ccc(-c3nn(-c4ccc(C(F)(F)F)cc4)c4c(C)cccc34)cc2=O)n1 [Compound 143, 4-(7-methyl-1-(4-(trifluoromethyl)phenyl)-1H-indazol-3-yl)-1-((2-(methylamino)pyrimidin-4-yl)methyl)pyridin-2(1H)-one] | 100 to 1000 | ≤ 1000
6 | C[C@@H](c1ccccn1)n1ccc(-c2nn(-c3ccc(C(F)(F)F)cc3)c3cc(C(N)=O)ccc23)cc1=O [Compound 30, (S)-3-(2-oxo-1-(1-(pyridin-2-yl)ethyl)-1,2-dihydropyridin-4-yl)-1-(4-(trifluoromethyl)phenyl)-1H-indazole-6-carboxamide] | > 1000 | ≤ 1000
7 | CN(CCO)c1nccc(Cn2ccc(-n3nc(-c4ccc(C(F)(F)F)cc4)c4nccnc43)cc2=O)n1 [Compound 52, 1-((2-((2-hydroxyethyl)(methyl)amino)pyrimidin-4-yl)methyl)-4-(3-(4-(trifluoromethyl)phenyl)-1H-pyrazolo[3,4-b]pyrazin-1-yl)pyridin-2(1H)-one] | ≤ 100 | ≤ 1000
8 | COCCN(C)c1nccc(Cn2ccc(-c3nn(-c4ccc(C(F)(F)F)cc4)c4cccc(F)c34)cc2=O)n1 [Compound 155, 4-(4-fluoro-1-(4-(trifluoromethyl)phenyl)-1H-indazol-3-yl)-1-((2-((2-methoxyethyl)(methyl)amino)pyrimidin-4-yl)methyl)pyridin-2(1H)-one] | 100 to 1000 | ≤ 1000
9 | CNc1nccc(Cn2ccc(-c3nc(-c4ccc(C(F)(F)F)cc4)n4ccccc34)cc2=O)n1 [Compound 127, 1-((2-(methylamino)pyrimidin-4-yl)methyl)-4-(3-(4-(trifluoromethyl)phenyl)imidazo[1,5-a]pyridin-1-yl)pyridin-2(1H)-one] | ≤ 100 | ≤ 1000
10 | Nc1ccnc(Cn2ccc(-n3nc(-c4ccc(C(F)(F)F)cc4)c4ncccc43)cc2=O)n1 [Compound 119, 1-((4-aminopyrimidin-2-yl)methyl)-4-(3-(4-(trifluoromethyl)phenyl)-1H-pyrazolo[4,3-b]pyridin-1-yl)pyridin-2(1H)-one] | ≤ 100 | ≤ 1000
11 | CNc1nccc(Cn2ccc(-c3nn(-c4ccc(C(F)(F)F)cc4)c4c(F)cccc34)cc2=O)n1 [Compound 128, 4-(7-fluoro-1-(4-(trifluoromethyl)phenyl)-1H-indazol-3-yl)-1-((2-(methylamino)pyrimidin-4-yl)methyl)pyridin-2(1H)-one] | ≤ 100 | ≤ 1000
12 | CNc1nccc(Cn2ccc(-c3nn(-c4ccc(C5CC5)cc4)c4c(F)cccc34)cc2=O)n1 [Compound 149, 4-(1-(4-cyclopropylphenyl)-7-fluoro-1H-indazol-3-yl)-1-((2-(methylamino)pyrimidin-4-yl)methyl)pyridin-2(1H)-one] | ≤ 100 | ≤ 1000
13 | O=c1cc(-c2nn(-c3ccc(C(F)(F)F)cc3)c3c(F)cccc23)ccn1Cc1ccnc(Cl)n1 [Compound 157, 1-((2-chloropyrimidin-4-yl)methyl)-4-(7-fluoro-1-(4-(trifluoromethyl)phenyl)-1H-indazol-3-yl)pyridin-2(1H)-one] | ≤ 100 | ≤ 1000
14 | CC(C)n1ccc(-c2nn(-c3ccc(C(F)(F)F)cc3)c3cccnc23)cc1=O [Compound 8, 1-isopropyl-4-(1-(4-(trifluoromethyl)phenyl)-1H-pyrazolo[4,3-b]pyridin-3-yl)pyridin-2(1H)-one] | 100 to 1000 | ≤ 1000
15 | C[C@@H](c1ccccn1)n1ccc(-c2nn(-c3ccc(C(F)(F)F)cc3)c3ncccc23)cc1=O [Compound 20, (S)-1-(1-(pyridin-2-yl)ethyl)-4-(1-(4-(trifluoromethyl)phenyl)-1H-pyrazolo[3,4-b]pyridin-3-yl)pyridin-2(1H)-one] | ≤ 100 | ≤ 1000

The next lines start with results.

Row | IC50 [1] [nM] | SMILES | IC50 (MSTO-211H cells) [nM]
16 | ≤ 100 | O=c1cc(-c2nn(-c3ccc(C(F)(F)F)cc3)c3ncccc23)ccn1Cc1ccn(CCO)n1 [Compound 74, 1-((1-(2-hydroxyethyl)-1H-pyrazol-3-yl)methyl)-4-(1-(4-(trifluoromethyl)phenyl)-1H-pyrazolo[3,4-b]pyridin-3-yl)pyridin-2(1H)-one] | ≤ 1000
17 | ≤ 100 | O=c1cc(-c2nn(-c3ccc(C(F)(F)F)cc3)c3ccccc23)ccn1Cc1cnccn1 [Compound 63, 1-(pyrazin-2-ylmethyl)-4-(1-(4-(trifluoromethyl)phenyl)-1H-indazol-3-yl)pyridin-2(1H)-one] | ≤ 1000
18 | ≤ 100 | O=c1cc(-c2nn(-c3ccc(C(F)(F)F)cc3)c3ccccc23)ccn1Cc1ccncc1 [Compound 19, 1-(pyridin-4-ylmethyl)-4-(1-(4-(trifluoromethyl)phenyl)-1H-indazol-3-yl)pyridin-2(1H)-one] | ≤ 1000
19 | ≤ 100 | CNc1nccc(Cn2ccc(-c3nn(-c4ccc(C(F)(F)F)cc4)c4ccccc34)cc2=O)n1 [Compound 92, 1-((2-(methylamino)pyrimidin-4-yl)methyl)-4-(1-(4-(trifluoromethyl)phenyl)-1H-indazol-3-yl)pyridin-2(1H)-one] | ≤ 1000
20 | ≤ 100 | COc1ccnc(Cn2ccc(-c3nn(-c4ccc(C(F)(F)F)cc4)c4ccccc34)cc2=O)n1 [Compound 68, 1-((4-methoxypyrimidin-2-yl)methyl)-4-(1-(4-(trifluoromethyl)phenyl)-1H-indazol-3-yl)pyridin-2(1H)-one] | ≤ 1000
21 | ≤ 100 | O=c1cc(-c2nn(-c3ccc(C(F)(F)F)cc3)c3ccccc23)ccn1Cc1nccc(O)n1 [Compound 71] | ≤ 1000
22 | ≤ 100 | CNc1ccnc(Cn2ccc(-c3nn(-c4ccc(C(F)(F)F)cc4)c4ccccc34)cc2=O)n1 [Compound 69, 1-((4-(methylamino)pyrimidin-2-yl)methyl)-4-(1-(4-(trifluoromethyl)phenyl)-1H-indazol-3-yl)pyridin-2(1H)-one] | ≤ 1000
23 | ≤ 100 | O=c1cc(-c2nn(-c3ccc(C(F)(F)F)cc3)c3ccccc23)ccn1Cc1nccc(N2CCC(O)CC2)n1 [Compound 86, 1-((4-(4-hydroxypiperidin-1-yl)pyrimidin-2-yl)methyl)-4-(1-(4-(trifluoromethyl)phenyl)-1H-indazol-3-yl)pyridin-2(1H)-one] | ≤ 1000
